Assay results reported in patent US8383673B2, “Nitridoosmium(VI) complexes for treatment of cancer” (priority 2010, dated 2013).
Like-named read-outs stand apart in the source and are kept apart here.

How the values were obtained:
[1] = system: human non-small cell lung cancer cells NCI-H460; details: for tumor weight: twice a week, eight injections, end of study (30 days), Mean ± SD; for inhibition rate (%): tumor growth inhibition by tumor weight vs negative group
Method: In vitro cultured human non-small cell lung cancer cells NCI-H460 (from ATCC) were inoculated in nude mice (SPF grade BALB/c-nu male nude mice were purchased from Medical Laboratory Animal Center, Guangdong Province) subcutaneously. The in vivo anti-cancer properties of Os1 (Compound 8) and Os2 (Compound 1) given by intraperitoneal injection were examined by measuring the tumor nodule size of the nude mice.
Each nude mouse was inoculated subcutaneously with 0.2 mL of 7.5×10^6 cells/mL of NCI-H460 cells suspended in culture medium.
Experimental Procedure: 16-18 g male BALB/c-nu nude mice were inoculated subcutaneously 0.2 mL of the NCI-H460 cell suspension (1.5×10^6 cells/rats). The day after inoculation (administration day 1), the nude mice were randomly divided into eight groups and were grouped as follows:
1) positive group (cyclophosphamide 30.0 mg/kg, intraperitoneal injection)
2) negative group (20% PET, intraperitoneal injection)
3) Os1 groups (three treatment groups: 10, 3, 1 mg/kg, intraperitoneal injection)
4) Os2 groups (three treatment groups: 10, 3, 1 mg/kg, intraperitoneal injection)
Mice in each group were received treatment twice a week, with a total number of eight injections. Tumor sizes were measured every 3 days. The treated mice were sacrificed at the end of the study period (30 days) with anatomical separation of tumor nodules. The tumors were weighed and photographed.
The inhibition rate of tumor growth was determined using the following formula: Tumor growth inhibition rate (%)=(1−mean tumor weight of the treatment/mean tumor weight of the negative group)×100%. Tumor volume=longest dimension (mm)×[shortest dimension of the tumor (mm)]^2/2. All measurements were expressed in Mean±SD, using SPSS 10.0 for statistical analysis.

[2] = system: human cervix epitheloid carcinoma (HeLa) cell line; assay: Microculture Tetrazolium Test (MTT assay), cytotoxicity in HeLa cell line; type: cell-based
Method: The cytotoxicity of the complexes was tested by using human cervix epitheloid carcinoma (HeLa) cell line. In this respect the following method was selected.
The antiproliferation activity of these nitridoosmium compounds was examined on human tumor cell lines in the Microculture Tetrazolium Test (MTT assay) with continuous active substance exposition (24 h for compound 1-7; 48 h for compound 8-11). In this regard, adherent monolayer cultures of HeLa cell line were used.
Culture conditions: The cells were kept in 10 cm^2 culture plates at 37° C. and moist atmosphere (5% CO2). Dulbecco's Modified Eagle's Medium (DMEM) was used as culture medium, with 1% antibiotic-antimycotic and 10% fetal bovine serum.
Test execution: Cell were harvested from culture plates by trypsinization and seeded in 100 μL aliquots in complete culture medium into 96-well microculture plates. Cell density of about 4800 cells/well was chosen in order to ensure exponential growth throughout drug exposure. Cells were allowed to settle for 24 h, followed by the addition of dilutions of the test compounds, which were dissolved in DMSO, in 100 μL/well complete culture medium (<1% DMSO) and incubation for 24 h (compound 1-7) or 48 h (compound 8-11). At the end of exposure, drug solutions were replaced by 100 μL/well DMEM medium with 10% MTT solution in phosphate-buffered saline (5 mg/ml PBS). After incubation for 1 h at 37° C., medium was removed, and the reduced formazan product formed by the metabolic activity of vital cells was dissolved in 100 μL DMSO per well. Optical densities at a wavelength of 570 nm were measured with a microplate reader. The quantity of vital cells was expressed in terms of T/C values by comparison to untreated control microcultures, and IC50 values were calculated from concentration-effect curves by logarithmic interpolation. Evaluation is based on means from at least three independent experiments, each comprising four replicates per concentration level.

[3] = system: HeLa cells; assay: MTT assay of Compound 8 with and without cisplatin; type: cell-based, human; details: for IC50: MTT, 3 days incubation
Method: Compound 8 was tested in the MTT assay to determine its effects with and without cisplatin (see FIG. 1). Assays of cytotoxicity were conducted in 96-well, flat-bottomed microtitre plates. The supplemented culture medium (MEM, 40 μL) with HeLa cells (1×10^5 cells per mL) was added to the wells. Compound 8 was dissolved in the culture medium with 0.5% DMSO with concentrations ranged from 5 μM to 100 μM, and aliquots (10 μL) of the solutions were subsequently added to a set of wells containing the HeLa cells. To examine the synergistic effect of cisplatin, cisplatin was dissolved in the culture medium in order to prepare solutions with concentrations of 0, 0.2, 2 and 6 μM. Aliquots of the cisplatin solutions (50 μL) were added to different sets of the wells containing compound 8 and the HeLa cells. Cells for control experiments were treated with supplemented media with 0.5% DMSO (100 μL). The microtitre plates were incubated at 37° C. in a humidified atmosphere of 5% CO2/95% air for a further 3 days. Assessment of cytotoxicity was carried out by using a modified method of the Mosmann-based 3-(4,5-dimethylthiazol-2-yl)-2,5-diphenyltetrazolium bromide (MTT) assay [T. Mosmann, J. Immunol. Methods 1983, 65, 55]. At the end of the incubation period, MTT solution (10 μL, Cell Proliferation Kit I, Roche) was added into each well and the cultures were incubated further for 4 h at 37° C. in a humidified atmosphere of 5% CO2/95% air. A solubilizing solution (100 μL) was added into wells to lyse the cells and to solubilize the formed formazan complex. The microtitre plates were maintained in a dark, humidified chamber overnight. The formation of formazan was measured by using a microtitre plate reader at 550 nm and the percentages of cell survival were determined. The cytotoxicity was evaluated based on the percentage cell survival in a dose-dependent manner relative to the control.

O=P1(N(CCCl)CCCl)NCCCO1 (centres unmarked) [positive control, cyclophosphamide, reference compound]
Tumor volume/mm^3 ([1]; 30 mg/kg i.p., day 14): 168.16 mm^3 | Tumor volume/mm^3 ([1]; 30 mg/kg i.p., day 18): 227.03 mm^3 | Tumor volume/mm^3 ([1]; 30 mg/kg i.p., day 22): 318.64 mm^3 | Tumor volume/mm^3 ([1]; 30 mg/kg i.p., day 26): 378.31 mm^3 | Tumor volume/mm^3 ([1]; 30 mg/kg i.p., day 30): 778.84 mm^3 | tumor weight ([1]; 30.0 mg/kg i.p.): 0.6095 ± 0.5477 g | inhibition rate (%) ([1]; 30.0 mg/kg i.p.): 74.04%

[Os^VI(N)(5-Mesalpa)(OH2)Cl] [Compound 4]
IC50 ([2]; 24 h exposure (compound 1-7)): < 25 µM

N.N.[Cl][Pt][Cl] [Cisplatin, cisplatin, reference compound]
IC50 ([3]; single agent): 7.5 µM

[Os^VI(N)(5-NO2salpa)(OH2)Cl] [Compound 6]
IC50 ([2]; 24 h exposure (compound 1-7)): < 100 µM

[Os^VI(N)(salpa)(OH2)Cl] [Compound 1]
IC50 ([2]; 24 h exposure (compound 1-7)): < 25 µM | Tumor volume/mm^3 ([1]; 1 mg/kg i.p., day 14): 380.21 mm^3 | Tumor volume/mm^3 ([1]; 1 mg/kg i.p., day 18): 710.06 mm^3 | Tumor volume/mm^3 ([1]; 1 mg/kg i.p., day 22): 726.71 mm^3 | Tumor volume/mm^3 ([1]; 1 mg/kg i.p., day 26): 1365.02 mm^3 | Tumor volume/mm^3 ([1]; 1 mg/kg i.p., day 30): 1110.38 mm^3 | tumor weight ([1]; 1 mg/kg i.p.): 1.2164 ± 0.6547 g | Tumor volume/mm^3 ([1]; 3 mg/kg i.p., day 14): 420.80 mm^3 | Tumor volume/mm^3 ([1]; 3 mg/kg i.p., day 18): 500.45 mm^3 | Tumor volume/mm^3 ([1]; 3 mg/kg i.p., day 22): 1011.29 mm^3 | Tumor volume/mm^3 ([1]; 3 mg/kg i.p., day 26): 1032.38 mm^3 | Tumor volume/mm^3 ([1]; 3 mg/kg i.p., day 30): 1390.62 mm^3 | tumor weight ([1]; 3 mg/kg i.p.): 1.3542 ± 0.5337 g | Tumor volume/mm^3 ([1]; 10 mg/kg i.p., day 14): 507.33 mm^3 | Tumor volume/mm^3 ([1]; 10 mg/kg i.p., day 18): 671.87 mm^3 | Tumor volume/mm^3 ([1]; 10 mg/kg i.p., day 22): 1342.17 mm^3 | Tumor volume/mm^3 ([1]; 10 mg/kg i.p., day 26): 1601.47 mm^3 | Tumor volume/mm^3 ([1]; 10 mg/kg i.p., day 30): 2188.17 mm^3 | tumor weight ([1]; 10 mg/kg i.p.): 2.1535 ± 1.4884 g | deaths of treated mice ([1]; high-dose group (10 mg/kg i.p.)): one treated mouse died at day 7 and one died at day 19 | deaths of treated mice ([1]; middle dose group (3 mg/kg i.p.)): one treated mouse died at day 23 and one died at day 26 | inhibition rate (%) ([1]; 1 mg/kg i.p.): 48.20% | inhibition rate (%) ([1]; 3 mg/kg i.p.): 42.33% | inhibition rate (%) ([1]; 10 mg/kg i.p.): 8.29%

[Os^VI(N)(5-MeOsalpa)(OH2)Cl] [Compound 5]
IC50 ([2]; 24 h exposure (compound 1-7)): < 25 µM

tran-[Os^VI(N)(indazole)2Cl3] [Compound 9]
IC50 ([2]; 48 h exposure (compound 8-11)): < 25 µM

[Os^VI(N)(5-Brsalpa)(OH2)Cl] [Compound 3]
IC50 ([2]; 24 h exposure (compound 1-7)): < 25 µM

[Os^VI(N)(5-Clsalpa)(OH2)Cl] [Compound 2]
IC50 ([2]; 24 h exposure (compound 1-7)): < 25 µM

Cc1ccn[nH]1.Cc1ccn[nH]1.[N]#[Os]([Cl])([Cl])[Cl] [Compound 11, trans-[Os^VI(N)(5-methylpyrazole)2Cl3]]
IC50 ([2]; 48 h exposure (compound 8-11)): < 100 µM

[Os^VI(N)(pyrazole)2Cl3] [Compound 8]
IC50 ([2]; 48 h exposure (compound 8-11)): < 25 µM | Tumor volume/mm^3 ([1]; 1 mg/kg i.p., day 14): 288.12 mm^3 | Tumor volume/mm^3 ([1]; 1 mg/kg i.p., day 18): 518.99 mm^3 | Tumor volume/mm^3 ([1]; 1 mg/kg i.p., day 22): 801.59 mm^3 | Tumor volume/mm^3 ([1]; 1 mg/kg i.p., day 26): 1319.35 mm^3 | Tumor volume/mm^3 ([1]; 1 mg/kg i.p., day 30): 1569.69 mm^3 | tumor weight ([1]; 1 mg/kg i.p.): 1.7206 ± 0.4289 g | Tumor volume/mm^3 ([1]; 3 mg/kg i.p., day 14): 482.89 mm^3 | Tumor volume/mm^3 ([1]; 3 mg/kg i.p., day 18): 1043.37 mm^3 | Tumor volume/mm^3 ([1]; 3 mg/kg i.p., day 22): 1140.42 mm^3 | Tumor volume/mm^3 ([1]; 3 mg/kg i.p., day 26): 1537.35 mm^3 | Tumor volume/mm^3 ([1]; 3 mg/kg i.p., day 30): 2262.38 mm^3 | tumor weight ([1]; 3 mg/kg i.p.): 2.0631 ± 1.1693 g | Tumor volume/mm^3 ([1]; 10 mg/kg i.p., day 14): 534.98 mm^3 | Tumor volume/mm^3 ([1]; 10 mg/kg i.p., day 18): 901.64 mm^3 | Tumor volume/mm^3 ([1]; 10 mg/kg i.p., day 22): 1422.37 mm^3 | Tumor volume/mm^3 ([1]; 10 mg/kg i.p., day 26): 2004.80 mm^3 | Tumor volume/mm^3 ([1]; 10 mg/kg i.p., day 30): 2511.59 mm^3 | tumor weight ([1]; 10 mg/kg i.p.): 2.7711 ± 1.0732 g | inhibition rate (%) ([1]; 1 mg/kg i.p.): 26.73% | inhibition rate (%) ([1]; 3 mg/kg i.p.): 12.14% | inhibition rate (%) ([1]; 10 mg/kg i.p.): −18.01% | effectiveness in the MTT assay compared with cisplatin [3]: more effective than cisplatin | IC50 ([3]; single agent): 3.8 µM | IC50 ([3]; with cisplatin 0.1 μM): 4.19 µM | IC50 ([3]; with cisplatin 1.0 μM): 3.38 µM | IC50 ([3]; with cisplatin 3.0 μM): 4.7 µM | synergistic effect of cisplatin administered with the compound ([3]; cisplatin 0.1-3.0 μM): does not provide any synergistic effect

Cc1cc(C)[nH]n1.Cc1cc(C)[nH]n1.[N]#[Os]([Cl])([Cl])[Cl] [Compound 10, trans-[Os^VI(N)(3,5-dimethylpyrazole)2Cl3]]
IC50 ([2]; 48 h exposure (compound 8-11)): < 100 µM
